Measured values from US9629822B2, “Flavonoid based antiviral targets” (UNIVERSITY OF CENTRAL FLORIDA RESEARCH FOUNDATION, INC., priority 2012, dated 2017).
Read-outs that look alike come from different tables or passages of the source.

Legend:
[1] = TZMbI assay for cell safety (cell viability and growth, CytoTox Glo); details: human, TZMbI cells, read-out: % decrease in viability compared to 0.1% DMSO vehicle based on viable cell luminescence
Method: Assays were performed below in accordance with the procedures set forth in The Journal of Immunology, 2006, 176, pp. 6900-905; AIDS Research and Human Retroviruses, 2004, 20:11, pp. 1157-1665.^32,33 TZMbI assays for cell safety were performed to identify potential anti-viral compounds. TZMbI assays for cell safety were performed to identify potential anti-viral compounds per the methods.

[2] = tested on: HIV-1 BaL; assay: Anti-HIV assay (luciferase, HIV-1 BaL infection); format: cell-based
Method: Assays were performed below in accordance with the procedures set forth in The Journal of Immunology, 2006, 176, pp. 6900-905; AIDS Research and Human Retroviruses, 2004, 20:11, pp. 1157-1665.^32,33 Cells were treated with 2 ng/mL p24 of HIV-1 BaL administered; MOI approx 0.02 (see refs 32, 33). Cells were treated with 2 ng/mL p24 of HIV-1 BaL administered; MOI approx 0.02 (see refs 32, 33).

[3] = molecular target: T1, US28 receptor (Human cytomegalovirus, UniProt P69332); assay: PathDetect trans Elk1 luciferase reporter gene assay in US28-transfected 293T HEK cells; format: cell-based, Human Cytomegalovirus (HCMV); details: for EC50: 293T HEK cells transiently expressing US28, Elk1 reporter; for Emax: read-out: Efficacy(%), maximum intrinsic activity from dose-response curve; for type of activity on the US28 receptor (agonist / inverse agonist / none), in words: Elk1 reporter, US28-transfected HEK cells
T1 construct: expressed in transfected cells; host or cells: HEK 293T cells, transiently transfected
T1 sequence (P69332 whole entry): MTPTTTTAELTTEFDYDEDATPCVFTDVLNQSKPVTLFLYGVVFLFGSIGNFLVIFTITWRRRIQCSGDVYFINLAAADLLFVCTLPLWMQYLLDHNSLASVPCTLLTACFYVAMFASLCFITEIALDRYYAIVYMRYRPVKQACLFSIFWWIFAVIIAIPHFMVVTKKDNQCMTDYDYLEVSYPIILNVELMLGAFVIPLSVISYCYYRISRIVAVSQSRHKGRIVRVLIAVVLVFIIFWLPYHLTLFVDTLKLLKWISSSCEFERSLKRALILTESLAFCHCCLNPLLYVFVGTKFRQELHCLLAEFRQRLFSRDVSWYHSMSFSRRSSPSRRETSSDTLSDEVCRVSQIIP
Excerpt: Having generated a homologous series of chalcones and flavones, their ability to interact with the US28 receptor in human embryonic kidney (HEK) cells was investigated using an Elk-1 gene reporter assay (FIG. 2). HEK cells were transfected with either an empty vector (i.e., mock cells) or with a vector carrying US 28. These matched HEK cells provided a means to evaluate off-target effects as well as innate drug toxicity. As many of the flavonoid drugs were not water-soluble, all drug stock solutions were made in 100% dimethylsulfoxide (DMSO). The final DMSO concentration for each cell-based experiment, however, was 1% DMSO. To account for the presence of DMSO, 1% DMSO controls were run in parallel. […] values of the homologous series were also determined in Chinese hamster ovary (CHO) cells in order to assess the relative toxicities of each member of the series in a different cell line (see Table 1).
Interaction with the US28 receptor was measured by a decrease in luminescence using a firefly (Photinus pyralis) luciferase-based PathDetect Elk1 gene reporter assay (FIG. 2).^23,24 This assay assessed the modulation of US28-mediated activation of mitogen-activated protein kinase (MAPK) signaling pathways (results are shown in Table 1). […] Such compounds which reduce MAPK signaling will have direct utility in the treatment of proliferative disorders including but not limited cancer.
After transfection the US28 is expressed and activates MAPK. The MAPK phosphorylates the activator domain of the GAL4dbd/Elk1 fusion protein, and causes its dimerization. The dimer then binds to the GAL4 UAS region of the reporter gene and allows for luciferase transcription. The luciferase mRNA is then translated and the luciferase protein is detected via luminescence by the use of the Bright-Glo reagent.
(§1) The efficacy of each compound on the US28 receptor was investigated in luciferase based reporter gene assay PathDetect trans Elk1 (Agilent, Stratagene)^23 as described previously.^13 Briefly, the human embryonic kidney (HEK) 293T cells were transiently-transfected with 0.1 μg Elk1, 5 μg Luc, and 5 μg of US28 vector or empty pcDNA3 vector (mock cells). Five hours after transfection, the cells were washed with DMEM containing 1% FBS, harvested, seeded in a white half-area 96-well plate (20,000 cells/well) and incubated with the indicated concentrations of test compounds. The incubation buffer consisted of DMEM, 1% FBS, 2 mM L-glutamine, 1% penicillin-streptomycin and 1% DMSO. The cells were incubated at 37° C. in the humid atmosphere with 5% CO2 for an additional 20-24 hours. The luciferase substrate BrightGlo (Promega) was used according to the manufacturer's instruction. The luminescence intensity was acquired using microplate reader Victor3V (Perkin-Elmer). The basal luminescence of mock transfected cells was approximately 500 RLU and the basal luminescence of US28-transfected cells was 4-5-fold higher (2000-2500 RLU). As the inhibitors gave differential responses in terms of their ability to reduce US 28 mediated signaling, their relative EC50 values were determined by dosing the US-28 transfected HEK cells with increasing concentrations of each compound. In this case, the EC50 value is the concentration of the compound needed to provoke a response halfway between the compound's maximal response (change in luminescence) and the no-compound control in the same US-28 transfected cell line. A plot of relative luminescence versus log of the compound concentration provided a dose-response curve from which the % efficacy was derived via non-linear regression methods using the algorithms in PRISM 5.0 (GraphPad Software, San Diego, Calif.).

[4] = tested on: mock transfected 293T HEK cells; assay: PathDetect Elk1 luminescence in mock transfected (empty pcDNA3 vector) 293T HEK cells, off-target effect; format: cell-based, human; details: Homo sapiens, 10 μM vs 1% DMSO control, Equation 1; read-out: Effect(%) on mock cells with each drug at 10 μM
Method: As a control, the empty pcDNA3 plasmid vector and the components of PathDetect system were also used for mock transfection of 293T HEK cells. Controls containing 1% DMSO were run in parallel. The relative luminescence results found with mock transfected 293T HEK cells treated with 10 μM drug and the untreated 1% DMSO control were compared via the following Equation 1. % Effect on mock cells=(100%×(mock cell luminescence/DMSO control luminescence))−100% Equation (1)
This equation was derived in order to assess the net effect each compound had on non-US28 containing HEK cells transfected via the same protocol. These control experiments were critical as they provided a method to address off target effects such as compound toxicity, which could give rise to false positives in the PathDetect assay.
Compounds, which had no off-target effects, gave nearly identical luminescence values in both the mock cells and the 1% DMSO control (i.e., a mock cell luminescence/DMSO control luminescence ratio of 1) and a net effect of 0% via Equation 1 (e.g., 9j: 0% in Table 1). In contrast, compounds that were stimulatory to the treated HEK cells gave higher mock cell luminescence than the DMSO control, a ratio >1, and a net positive value in Equation 1 for the % effect on mock cells (e.g., 8f: 290%). On the other hand, compounds that were intrinsically toxic gave lower luminescence in the treated mock cells than the DMSO control, a ratio below 1, and a net negative value for the % effect on mock cells (e.g., 8d: ˜42%).
as §1

[5] = tested on: CHO cells; assay: CHO cell toxicity, MTS assay, 48 h; format: cell-based, Chinese hamster; details: Cricetulus griseus, CHO, 37° C., MTS reagent, read-out: CHO 48 h IC50 value
Method: In each case, the chalcone system 8 was more toxic than the corresponding ring-closed system, 9.
The CHO assay was conducted to assess the general toxicity of each flavonoid drug. Briefly, cell growth was assayed in sterile 96-well microtiter plates (Costar 3599, Corning, N.Y., USA) in the presence of each drug. Experiments were conducted in triplicate. CHO cells were plated at 10,000 cells/mL. Drug solutions were prepared in 100% DMSO and dosed so that the final DMSO concentration was <1%. For example, 1 μL of drug solution was added to the CHO cells plated in each well in 100 μL of media. Drug additions occurred after an initial overnight incubation of CHO cells in each well. After drug was added, the cells were incubated in 5% CO2 for 48 h at 37° C. The MTS reagent (Promega Cell Titer 96 Aqueous non-radioactive cell proliferation reagent) was added (20 μL) and the CHO cells were incubated for an additional 4h and then absorbance at 490 nm was measured on a BioTek Synergy MX plate reader. […] IC50 values were determined from the corresponding plot of relative absorbance at 490 nm vs drug concentration.

[6] = 10 μM, Experiment 1B, 2 ng/mL p24 HIV-1 BaL
[7] = Human immunodeficiency virus 1, BAL, 10 μM, Experiment 1B, 2 ng/mL p24 HIV-1 BaL
[8] = EC50 (μM), NE = no effect when tested at 10 μM of compound
[9] = Human immunodeficiency virus 1, BAL, 5 μM, Experiment 2B
[10] = Human immunodeficiency virus 1, BAL, 10 μM, Experiment 2B
[11] = Human immunodeficiency virus 1, BAL, 20 μM, Experiment 2B
[12] = NE = no effect when tested at 10 μM of compound

Row | SMILES | cytotoxicity at 10 μM ([1]; Experiment 1A) | melting point | RLU (relative luciferase units) [2, 6] | inhibition at 10 µM [2, 7] | EC50 [3, 8] | Emax ([3]; negative = inverse agonism) | activation at 10 µM [4] | IC50 [5] | cytotoxicity at 5 μM ([1]; Experiment 2A) | cytotoxicity at 10 μM ([1]; Experiment 2A) | cytotoxicity at 20 μM ([1]; Experiment 2A) | RLU (relative luciferase units) ([2]; 5 μM, Experiment 2B) | RLU (relative luciferase units) ([2]; 10 μM, Experiment 2B) | RLU (relative luciferase units) ([2]; 20 μM, Experiment 2B) | inhibition at 5 µM [2, 9] | inhibition at 10 µM [2, 10] | inhibition at 20 µM [2, 11] | EC50 [3, 12] | type of activity on the US28 receptor (agonist / inverse agonist / none), in words [3] | other results
1 | COc1cc(OC)c(/C=C/C(=O)c2ccccc2O)cc1Br [Compound 8e, (E)-3-(5-bromo-2,4-dimethoxyphenyl)-1-(2-hydroxyphenyl)prop-2-en-1-one] | 4.1% | 153 to 157 °C | 671.4 RLU | 29% | 4.9 µM | ~55% | 5% | 16.9 ± 1.3 µM |  |  |  |  |  |  |  |  |  |  |  | 
2 | COc1cc(Br)cc(-c2oc3ccccc3c(=O)c2O)c1OC [Compound 9d, 2-(5-Bromo-2,3-dimethoxyphenyl)-3-hydroxy-4H-chromen-4-one] | -7.3% | 153 to 158 °C | 452.5 RLU | 51.7% |  |  |  | > 100 µM | -7.87% | -18.6% | -23.7% | 10.04 RLU | 25.14 RLU | 41.25 RLU | -7.87% | -18.6% | -23.7% | > 10 µM |  | cytotoxicity at 40 μM ([1]; 40 μM, Experiment 2A): -33.1%; cytotoxicity at 80 μM ([1]; 80 μM, Experiment 2A): -8.38%; RLU (relative luciferase units) ([2]; 40 μM, Experiment 2B): 68.82 RLU; RLU (relative luciferase units) ([2]; 80 μM, Experiment 2B): 59.85 RLU; inhibition at 40 µM ([2]; Human immunodeficiency virus 1, BAL, 40 μM, Experiment 2B): -33.1%; inhibition at 80 µM ([2]; Human immunodeficiency virus 1, BAL, 80 μM, Experiment 2B): -8.38%
3 | CCOc1ccc(Cl)cc1-c1oc2ccccc2c(=O)c1O [Compound 9i, 2-(5-chloro-2-ethoxyphenyl)-3-hydroxy-4H-chromen-4-one] | 21.8% | 156 to 159 °C | 361.0 RLU | 61.4% |  | -41% |  | > 100 µM | 10.7% | 18.7% | 21.6% | 204.06 RLU | 159.94 RLU | 81.12 RLU | 26.1% | 41.5% | 74.6% |  | inhibited US28 activity | cytotoxicity at 1.25 μM ([1]; 1.25 μM, Experiment 2A): 10.8%; cytotoxicity at 2.5 μM ([1]; 2.5 μM, Experiment 2A): 6.19%; RLU (relative luciferase units) ([2]; 1.25 μM, Experiment 2B): 254.23 RLU; RLU (relative luciferase units) ([2]; 2.5 μM, Experiment 2B): 238.44 RLU; inhibition at 1.25 µM ([2]; Human immunodeficiency virus 1, BAL, 1.25 μM, Experiment 2B): 2.53%; inhibition at 2.5 µM ([2]; Human immunodeficiency virus 1, BAL, 2.5 μM, Experiment 2B): 8.25%; EC50 ([3]; pEC50 ± SEM): 0.309 µM
4 | COc1ccc(Br)cc1-c1cc(=O)c2ccccc2o1 [Compound 11d, 2-(5-Bromo-2-methoxyphenyl)-4H-chromen-4-one] | 23.6% | 161 to 164 °C | 576.3 RLU | 38.4% | 8.1 µM | -55% |  | > 100 µM |  |  |  |  |  |  |  |  |  |  | inverse agonism | Efficacy(%) ([3]; maximum intrinsic activity from dose-response curve, negative = inverse agonism): −55%
5 | COc1ccc(Cl)cc1C1CC(=O)c2ccccc2O1 (stereo not drawn) [Compound 13h, 2-(5-Chloro-2-methoxyphenyl)chroman-4-one] |  | 51 to 60 °C |  |  | > 10 µM |  | -14% |  |  |  |  |  |  |  |  |  |  | > 10 µM | did not have any significant effect | 
